From patent publication US20260085067A1, “CYCLIC SULFONAMIDE RIBONUCLEOTIDE REDUCTASE (RNR) INHIBITORS AND USES THEREOF” (Boundless Bio, Inc., priority 2022, published 2026)

Tests used:
[1] = test system: pCHK1 (S345) in Colo320 DM cells; assay: Alphalisa assay, detection of pCHK1 (S345) in Colo320 DM cells; format: cell-based, human; conditions: Homo sapiens, COLO 320DM, compound overnight (approximately 16 hours)
How it was run: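 Colo320 DM cells plated overnight, then exposed to compound for about 16 h at 37 °C (DMSO <0.5%). Cells lysed and phospho-CHK1 (S345) quantified by AlphaLisa SureFire with sequential 60 min acceptor and donor incubations at room temperature.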

RNR (RNR1:RNR2 1:1) = target: T1, RNR (RNR1:RNR2 1:1) (Homo sapiens, UniProt P23921); assay: RNR enzyme activity, rapid-fire mass spectrometry (RF/MS) assay; format: biochemical; conditions: [RNR] 50 nM, 1:1 RNR1:RNR2; CDP 5 μM; ATP 1 mM; 37° C., 45 min; compounds screened up to 50 μM
T1 sequence (P23921 1-792): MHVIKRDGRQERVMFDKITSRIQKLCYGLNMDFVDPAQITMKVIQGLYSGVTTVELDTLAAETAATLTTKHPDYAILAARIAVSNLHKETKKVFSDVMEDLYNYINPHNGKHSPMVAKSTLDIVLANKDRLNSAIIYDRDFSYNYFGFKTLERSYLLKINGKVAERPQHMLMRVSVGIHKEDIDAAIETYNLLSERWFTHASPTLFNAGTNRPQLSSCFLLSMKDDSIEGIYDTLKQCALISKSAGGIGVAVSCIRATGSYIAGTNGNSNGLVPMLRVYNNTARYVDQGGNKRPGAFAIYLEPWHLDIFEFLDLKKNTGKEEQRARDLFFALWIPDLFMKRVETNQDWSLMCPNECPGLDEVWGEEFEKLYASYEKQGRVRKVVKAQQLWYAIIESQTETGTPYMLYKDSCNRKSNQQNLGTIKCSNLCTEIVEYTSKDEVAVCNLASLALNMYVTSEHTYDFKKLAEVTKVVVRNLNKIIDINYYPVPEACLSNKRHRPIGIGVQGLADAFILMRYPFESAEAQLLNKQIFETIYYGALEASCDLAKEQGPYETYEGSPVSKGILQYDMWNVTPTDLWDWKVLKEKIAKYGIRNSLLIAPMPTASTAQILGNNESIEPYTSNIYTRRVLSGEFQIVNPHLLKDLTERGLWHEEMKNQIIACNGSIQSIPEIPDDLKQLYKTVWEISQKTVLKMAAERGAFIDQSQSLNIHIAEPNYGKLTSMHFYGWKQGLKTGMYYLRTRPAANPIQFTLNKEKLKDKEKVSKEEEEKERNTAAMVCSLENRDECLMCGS
How it was run: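 Human RNR (50 nM final, RNR1:RNR2 1:1) pre-incubated 15 min at room temperature, then reacted 45 min at 37 °C with 5 μM CDP and 1 mM ATP, no NADPH. Reaction quenched with 6% HCOOH; product quantified by rapid-fire mass spectrometry.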

IC50 [1] [nM]	IC50 (RNR (RNR1:RNR2 1:1)) [nM]	Compound
≤ 1000	< 20	Cc1ccc(F)c([C@@H](C)[C@@H](c2n[nH]c(=O)o2)N2CN(CCN(C)C)c3cc(Cl)ccc3S2(=O)=O)c1C [Example 38, 5-((1S,2R)-1-(6-chloro-4-(2-(dimethylamino)ethyl)-1,1-dioxido-3,4-dihydro-2H-benzo[e][1,2,4]thiadiazin-2-yl)-2-(6-fluoro-2,3-dimethylphenyl)propyl)-1,3,4-oxadiazol-2 (3H)-one]
> 50000	10000 to 100000	Cc1ccc(F)c([C@H](C)[C@@H](c2n[nH]c(=O)o2)N2CN(C)c3cc(Cl)cc(C(=O)N(C)C)c3S2(=O)=O)c1C [Example 39]
5000 to 10000	< 20	Cc1ccc(F)c(C(C)[C@@H](c2n[nH]c(=O)o2)N2CCOc3c(ccc(Cl)c3C(C)(C)O)S2(=O)=O)c1C (stereo partly drawn) [Example 40, 5-((1S)-1-(7-chloro-6-(2-hydroxypropan-2-yl)-1,1-dioxido-3,4-dihydro-2H-benzo[b][1,4,5]oxathiazepin-2-yl)-2-(6-fluoro-2,3-dimethylphenyl)propyl)-1,3,4-oxadiazol-2 (3H)-one]
> 50000	100 to 1000	Cc1ccc(F)c([C@@H](C)[C@@H](c2n[nH]c(=O)o2)N2COc3cc(Cl)cc(C(=O)N(C)C)c3S2(=O)=O)c1C [Example 41, 6-chloro-2-((1S,2R)-2-(6-fluoro-2,3-dimethylphenyl)-1-(5-oxo-4,5-dihydro-1,3,4-oxadiazol-2-yl)propyl)-N,N-dimethyl-2,3-dihydrobenzo[e][1,4,3]oxathiazine-8-carboxamide 1,1-dioxide]
≤ 1000	< 20	Cc1ccc(F)c([C@@H](C)[C@@H](c2n[nH]c(=O)o2)N2CN(C3COC3)c3cc(Cl)ccc3S2(=O)=O)c1C [Example 42, 5-((1S,2R)-1-(6-chloro-4-(oxetan-3-yl)-1,1-dioxido-3,4-dihydro-2H-benzo[e][1,2,4]thiadiazin-2-yl)-2-(6-fluoro-2,3-dimethylphenyl)propyl)-1,3,4-oxadiazol-2 (3H)-one]
≤ 1000	< 20	COCCN1CN([C@H](c2n[nH]c(=O)o2)[C@H](C)c2c(F)ccc(C)c2C)S(=O)(=O)c2ccc(Cl)cc21 [Example 45, 5-((1S,2R)-1-(6-chloro-4-(2-methoxyethyl)-1,1-dioxido-3,4-dihydro-2H-benzo[e][1,2,4]thiadiazin-2-yl)-2-(6-fluoro-2,3-dimethylphenyl)propyl)-1,3,4-oxadiazol-2 (3H)-one]
≤ 1000	< 20	Cc1ccc(F)c([C@@H](C)[C@@H](c2n[nH]c(=O)o2)N2CN(C(=O)C3CC3)c3cc(Cl)ccc3S2(=O)=O)c1C [Example 46, 5-((1S,2R)-1-(6-chloro-4-(cyclopropanecarbonyl)-1,1-dioxido-3,4-dihydro-2H-benzo[e][1,2,4]thiadiazin-2-yl)-2-(6-fluoro-2,3-dimethylphenyl)propyl)-1,3,4-oxadiazol-2 (3H)-one]
1000 to 5000	< 20	Cc1ccc(F)c([C@@H](C)[C@@H](c2n[nH]c(=O)o2)N2CN(C3CCN(C)CC3)c3cc(Cl)ccc3S2(=O)=O)c1C [Example 47, 5-((1S,2R)-1-(6-chloro-4-(1-methylpiperidin-4-yl)-1,1-dioxido-3,4-dihydro-2H-benzo[e][1,2,4]thiadiazin-2-yl)-2-(6-fluoro-2,3-dimethylphenyl)propyl)-1,3,4-oxadiazol-2 (3H)-one]
≤ 1000	< 20	Cc1ccc(F)c([C@@H](C)[C@@H](c2n[nH]c(=O)o2)N2CN(CC3CCOC3)c3cc(Cl)ccc3S2(=O)=O)c1C (stereo partly drawn) [Example 49, 5-((1S,2R)-1-(6-chloro-1,1-dioxido-4-((tetrahydrofuran-3-yl)methyl)-3,4-dihydro-2H-benzo[e][1,2,4]thiadiazin-2-yl)-2-(6-fluoro-2,3-dimethylphenyl)propyl)-1,3,4-oxadiazol-2 (3H)-one]
≤ 1000	< 20	Cc1ccc(F)c([C@@H](C)[C@@H](c2n[nH]c(=O)o2)N2CN(C3CCCN(C)C3)c3cc(Cl)ccc3S2(=O)=O)c1C (stereo partly drawn) [Example 51, 5-((1S,2R)-1-(6-chloro-4-(1-methylpiperidin-3-yl)-1,1-dioxido-3,4-dihydro-2H-benzo[e][1,2,4]thiadiazin-2-yl)-2-(6-fluoro-2,3-dimethylphenyl)propyl)-1,3,4-oxadiazol-2 (3H)-one]
≤ 1000	< 20	Cc1ccc(F)c([C@@H](C)[C@@H](c2n[nH]c(=O)o2)N2CN(C[C@H]3CCCO3)c3cc(Cl)ccc3S2(=O)=O)c1C [Example 52, 5-((1S,2R)-1-(6-chloro-1,1-dioxido-4-(((R)-tetrahydrofuran-2-yl)methyl)-3,4-dihydro-2H-benzo[e][1,2,4]thiadiazin-2-yl)-2-(6-fluoro-2,3-dimethylphenyl)propyl)-1,3,4-oxadiazol-2 (3H)-one]
1000 to 5000	< 20	Cc1ccc(F)c([C@@H](C)[C@@H](c2n[nH]c(=O)o2)N2CCOc3c(ccc(Cl)c3CN(C)C)S2(=O)=O)c1C [Example 55, 5-((1S,2R)-1-(7-chloro-6-((dimethylamino)methyl)-1,1-dioxido-3,4-dihydro-2H-benzo[b][1,4,5]oxathiazepin-2-yl)-2-(6-fluoro-2,3-dimethylphenyl)propyl)-1,3,4-oxadiazol-2 (3H)-one]
1000 to 5000	< 20	CC(=O)N1CN([C@H](c2n[nH]c(=O)o2)[C@H](C)c2c(F)ccc(C)c2C)S(=O)(=O)c2ccc(Cl)cc21 [Example 56, 5-((1S,2R)-1-(4-acetyl-6-chloro-1,1-dioxido-3,4-dihydro-2H-benzo[e][1,2,4]thiadiazin-2-yl)-2-(6-fluoro-2,3-dimethylphenyl)propyl)-1,3,4-oxadiazol-2 (3H)-one]
10000 to 50000	20 to 100	Cc1ccc(F)c([C@@H](C)[C@@H](c2n[nH]c(=O)o2)N2CN(C3CNC3)c3cc(Cl)ccc3S2(=O)=O)c1C [Example 57, 5-((1S,2R)-1-(4-(azetidin-3-yl)-6-chloro-1,1-dioxido-3,4-dihydro-2H-benzo[e][1,2,4]thiadiazin-2-yl)-2-(6-fluoro-2,3-dimethylphenyl)propyl)-1,3,4-oxadiazol-2 (3H)-one]
10000 to 50000	20 to 100	Cc1ccc(F)c([C@@H](C)[C@@H](c2n[nH]c(=O)o2)N2CN([C@@H]3CCNC3)c3cc(Cl)ccc3S2(=O)=O)c1C [Example 58, 5-((1S,2R)-1-(6-chloro-1,1-dioxido-4-((R)-pyrrolidin-3-yl)-3,4-dihydro-2H-benzo[e][1,2,4]thiadiazin-2-yl)-2-(6-fluoro-2,3-dimethylphenyl)propyl)-1,3,4-oxadiazol-2 (3H)-one]
5000 to 10000	< 20	Cc1ccc(F)c([C@@H](C)[C@@H](c2n[nH]c(=O)o2)N2CN([C@H]3CCNC3)c3cc(Cl)ccc3S2(=O)=O)c1C [Example 59, 5-((1S,2R)-1-(6-chloro-1,1-dioxido-4-((S)-pyrrolidin-3-yl)-3,4-dihydro-2H-benzo[e][1,2,4]thiadiazin-2-yl)-2-(6-fluoro-2,3-dimethylphenyl)propyl)-1,3,4-oxadiazol-2 (3H)-one]
10000 to 50000	100 to 1000	Cc1ccc(F)c([C@@H](C)[C@@H](c2n[nH]c(=O)o2)N2CN(C)c3c(ccc(Cl)c3CN3CCCCC3)S2(=O)=O)c1C [Example 61, 5-((1S,2R)-1-(6-chloro-4-methyl-1,1-dioxido-5-(piperidin-1-ylmethyl)-3,4-dihydro-2H-benzo[e][1,2,4]thiadiazin-2-yl)-2-(6-fluoro-2,3-dimethylphenyl)propyl)-1,3,4-oxadiazol-2 (3H)-one]
